# ChEMBL document CHEMBL4699511, “Cedrol, a Sesquiterpene Alcohol, Enhances the Anticancer Efficacy of Temozolomide in Attenuating Drug Resistance via Regulation of the DNA Damage Response and MGMT Expression” (J Nat Prod, 2020)
# The source made the active and inactive calls. No cut-off for these calls is given here.
# Columns and labels:
# RG2 [1] = assay: Induction of cell cycle arrest in rat RG2 cells assessed as accumulation at G0/G1 phase at 112.4 uM after 24 hrs in presence of TMZ by propidium iodide staining based flow cytometric analysis (reference value: 57.81 +/- 1.9%); type: functional
# DBTRG-05MG [2] = assay: Induction of cell cycle arrest in human DBTRG-05MG cells assessed as accumulation at G0/G1 phase at 112.4 uM after 6 hrs by propidium iodide staining based flow cytometric analysis (reference value: 47.16 +/- 1.55%); type: functional
# [3] = Effect on AKT expression in human DBTRG-05MG cells at 112.4uM after 48 hrs by Western blot analysis (reference value: 1); type: functional
# DBTRG-05MG [4] = assay: Induction of cell cycle arrest in human DBTRG-05MG cells assessed as accumulation at S phase at 112.4 uM after 48 hrs in presence of TMZ by propidium iodide staining based flow cytometric analysis (reference value: 22.76 +/- 1.56%); type: functional
# [5] = Synergistic cytotoxicity against rat CTX TNA2 cells assessed as combination index at 112.4 uM after 48 hrs in presence of 206 uM TMZ by MTT assay; type: cell-based; settings: ctx tna2, 48 h
# [6] = Effect on ERK expression in human DBTRG-05MG cells at 112.4uM after 48 hrs in presence of TMZ by Western blot analysis (reference value: 1); type: functional
# RG2 [7] = assay: Induction of DNA damage in rat RG2 cells assessed as Chk2 phosphorylation at Thr68 at 112.4 uM after 48 hrs by Western blot analysis (reference value: 1); type: functional
# [8] = Effect on p38 expression in human DBTRG-05MG cells at 112.4uM after 48 hrs in presence of TMZ by Western blot analysis (reference value: 1); type: functional
# RG2 [9] = assay: Synergistic cytotoxicity against rat RG2 cells assessed as combination index at 89.9 uM after 48 hrs in presence of 309 uM TMZ by MTT assay; type: functional
# RG2 [10] = assay: Induction of cell cycle arrest in rat RG2 cells assessed as accumulation at G2/M phase at 112.4 uM after 6 hrs by propidium iodide staining based flow cytometric analysis (reference value: 20.04 +/- 0.55%); type: functional
# [11] = Synergistic cytotoxicity against rat CTX TNA2 cells assessed as synergistic effect index at 112.4 uM after 48 hrs in presence of 412.1 uM TMZ by MTT assay; type: cell-based; settings: ctx tna2, 48 h
# DBTRG-05MG [12] = assay: Induction of cell cycle arrest in human DBTRG-05MG cells assessed as accumulation at S phase at 112.4 uM after 48 hrs by propidium iodide staining based flow cytometric analysis (reference value: 22.76 +/- 1.56%); type: functional
# DBTRG-05MG [13] = assay: Induction of cell cycle arrest in human DBTRG-05MG cells assessed as accumulation at G2/M phase at 112.4 uM after 48 hrs by propidium iodide staining based flow cytometric analysis (reference value: 30.08 +/- 0.1%); type: functional
# [14] = Effect on JNK expression in rat RG2 cells at 112.4uM after 48 hrs by Western blot analysis (reference value: 1); type: functional
# RG2 [15] = assay: Induction of apoptosis in rat RG2 cells assessed as increase in apoptotic body formation at 112.4 uM after 48 hrs by TUNEL assay; type: functional, cell-based
# [16] = Synergistic cytotoxicity against rat CTX TNA2 cells assessed as combination index at 112.4 uM after 48 hrs in presence of 309 uM TMZ by MTT assay; type: cell-based; settings: ctx tna2, 48 h
# RG2 [17] = assay: Induction of cell cycle arrest in rat RG2 cells assessed as p21 expression at 112.4 uM after 48 hrs in presence of TMZ by Western blot analysis (reference value: 1); type: functional
# RG2 [18] = assay: Induction of cell cycle arrest in rat RG2 cells assessed as CyclinD1 expression at 112.4 uM after 48 hrs in presence of TMZ by Western blot analysis (reference value: 1); type: functional
# [19] = Toxicity in BALB/c mouse xenografted with DBTRG-05MG cells assessed as reduction in body weight at 75 mg/kg, sc for 18 days co-treated with TMZ; type: organism-based; settings: in vivo, 432 h, time 18 day
# RG2 [20] = assay: Inhibition of p38 phosphorylation at Tyr182 residues in rat RG2 cells at 112.4uM after 48 hrs in presence of TMZ by Western blot analysis (reference value: 1); type: cell-based
# DBTRG-05MG [21] = assay: Synergistic cytotoxicity against human DBTRG-05MG cells assessed as synergistic effect index at 112.4 uM after 48 hrs in presence of 103 uM TMZ by MTT assay; type: functional
# RG2 [22] = assay: Induction of apoptosis in rat RG2 cells assessed as increase in DNA fragmentation at 112.4 uM after 48 hrs by TUNEL assay; type: functional, cell-based
# DBTRG-05MG [23] = assay: Induction of apoptosis in human DBTRG-05MG cells assessed as cleaved caspace-9 expression at 112.4 uM after 48 hrs in presence of TMZ by Western blot analysis (reference value: 1); type: functional
# [24] = Effect on p38 expression in rat RG2 cells at 112.4uM after 48 hrs by Western blot analysis (reference value: 1); type: functional
# RG2 [25] = assay: Induction of apoptosis in rat RG2 cells assessed as Bax expression at 112.4 uM after 48 hrs in presence of TMZ by Western blot analysis (reference value: 1); type: functional
# [26] = Inhibition of TMZ-induced drug resistance in rat RG2 cells assessed as CD133 expression at 112.4 uM after 48 hrs by Western blot analysis (reference value: 2.4); type: functional
# RG2 [27] = assay: Synergistic cytotoxicity against rat RG2 cells assessed as combination index at 134.9 uM after 48 hrs in presence of 206 uM TMZ by MTT assay; type: functional
# RG2 [28] = assay: Induction of apoptosis in rat RG2 cells assessed as Bcl2 expression at 206 uM after 48 hrs by Western blot analysis (reference value: 1); type: functional
# RG2 [29] = assay: Induction of cell cycle arrest in rat RG2 cells assessed as CyclinB1 expression at 206 uM after 48 hrs by Western blot analysis (reference value: 1); type: functional
# DBTRG-05MG [30] = assay: Induction of DNA damage in human DBTRG-05MG cells assessed as H2A.X phosphorylation at ser139 residues at 206 uM after 48 hrs by Western blot analysis (reference value: 1); type: functional
# DBTRG-05MG [31] = assay: Induction of cell cycle arrest in human DBTRG-05MG cells assessed as p53 expression at 206 uM after 48 hrs by Western blot analysis (reference value: 1); type: functional
# RG2 [32] = assay: Induction of cell cycle arrest in rat RG2 cells assessed as accumulation at S phase at 206 uM after 24 hrs by propidium iodide staining based flow cytometric analysis (reference value: 20.15 +/- 2.44%); type: functional
# DBTRG-05MG [33] = assay: Induction of cell cycle arrest in human DBTRG-05MG cells assessed as accumulation at G0/G1 phase at 206 uM after 24 hrs by propidium iodide staining based flow cytometric analysis (reference value: 47.16 +/- 1.55%); type: functional
# DBTRG-05MG [34] = assay: Induction of cell cycle arrest in human DBTRG-05MG cells assessed as accumulation at G0/G1 phase at 206 uM after 48 hrs by propidium iodide staining based flow cytometric analysis (reference value: 47.16 +/- 1.55%); type: functional
compound,measurement,setting,value
C[C@@H]1CC[C@H]2C(C)(C)[C@H]3C[C@@]12CC[C@@]3(C)O [CEDROL],Activity,RG2 [1],61.35%
same,Activity,DBTRG-05MG [2],53.26%
same,fold change (FC),[3],0.9
same,Activity,DBTRG-05MG [4],20.58%
same,CI,[5],1.17
same,fold change (FC),[6],0.8
same,fold change (FC),RG2 [7],1
same,fold change (FC),[8],0.8
same,CI,RG2 [9],1.04
same,Activity,RG2 [10],21.06%
same,Activity_index,[11],0.58
same,Activity,DBTRG-05MG [12],18.04%
same,Activity,DBTRG-05MG [13],28.83%
same,fold change (FC),[14],0.8
same,Activity,RG2 [15],Active
same,CI,[16],1.09
same,fold change (FC),RG2 [17],2.5
same,fold change (FC),RG2 [18],0.8
same,Activity,[19],Non-Toxic
same,fold change (FC),RG2 [20],1.8
same,Activity_index,DBTRG-05MG [21],0.84
same,Activity,RG2 [22],Active
same,fold change (FC),DBTRG-05MG [23],3.4
same,fold change (FC),[24],0.8
same,fold change (FC),RG2 [25],2.21
same,fold change (FC),[26],1.3
same,CI,RG2 [27],0.84
Cn1nnc2c(C(N)=O)ncn2c1=O [TEMOZOLOMIDE],fold change (FC),RG2 [28],1.3
same,fold change (FC),RG2 [29],1.8
same,fold change (FC),DBTRG-05MG [30],1
same,fold change (FC),DBTRG-05MG [31],2
same,Activity,RG2 [32],15.48%
same,Activity,DBTRG-05MG [33],31.03%
same,Activity,DBTRG-05MG [34],22.95%
